Data published in US7407989B2, “Compounds useful for modulating abnormal cell proliferation” (The Hospital for Sick Children, priority 2004, dated 2008).

How the values were obtained:
[1] = tested on: normal bone marrow cells (BFU-E colonies); assay: Effect upon normal bone marrow differentiation in culture (CFU-GEMM assay, BFU-E colonies); assay type: cell-based; details: Bone marrow cell, 336 h, BFU-E colonies evaluated at 14 days, read-out: NBM (BFU-E) IC50
Description: The CFU-GEMM assay was performed according to Fauser and Messner (1978, Blood, 52(6) 143-8) and Messner and Fausser (1980, Blut, 41(5) 327-33) with some variations. In brief, heparinized bone marrow cells were layered over Percoll (1.077 gm/ml) (Pharmacia Fine Chemical, Piscataway N.J.) and centrifuged at 400 g at 4° C. for 10 minutes to remove neutrophils and RBCs. The fractionated BM cells at […] were cultured in IMDM (OCI, Toronto) containing 0.9% (vol/vol) methylcellulose supplemented with 30% FCS (Cansera Rexdale, ON.) or normal human plasma, a cocktail of cytokines containing G-CSF (10 ng/ml, Amgen), IL-3 (40 U/ml, Immunex), MGF (50 ng/ml, Immunex), Erythropoietin (2 u/ml, Epprex) or TPO (10 ng/ml, Amgen), 5×10^−5 M Bβ-2-mercaptoethanol and the specified concentration of CR4. The culture mixture was plated in 1 ml volumes into 35 mm petri dishes and incubated at 37° C., 5% CO2 in a humidified atmosphere. All cultures were evaluated at 14 days for the number of BFU-E colonies (defined as aggregates of more than 500 hemoglobinized cells or, 3 or more erythroid subcolonies), CFU-GM colonies (defined as granulocyte or monocyte-macrophage cells or both), CFU-Meg colonies (comprising 4 or more megakaryocytes) and CFU-GEMM colonies (a mixed population comprising of all elements).

[2] = tested on: Philadelphia Positive Z119 Acute Lymphoblastic Leukemia Cells; assay: Killing of Philadelphia positive Z119 acute lymphoblastic leukemia cells in culture (colony assay in methylcellulose); assay type: cell-based; details: colonies of more than 20 cells counted at 7-9 days, no exogenous growth factors, read-out: ALL (Z 119) IC50
Description: Z119 cells were plated in 1 ml volumes at a density of 5×10^4 cells/ml, in the absence of exogenous growth factors, into 35 mm petri dishes (Nunc, Gibco) containing IMDM (OCI, Toronto) plus 20% FCS (Cansera Rexdale, ON.) in 0.9% (vol/vol) methylcellulose (Fluka, Switzerland) with the indicated concentration of for various test compounds described above. Cultures were set at 37° C., 5% CO2 in a humidified atmosphere. Colonies consisting of more than 20 cells were counted at 7-9 days using an inverted microscope.

Compound `COc1cc(/C=C/C=C/C(=O)NCc2ccccc2)ccc1O` [CRD-81, 5-(4-Hydroxy-3-methoxyphenyl)-penta-2E,4E-dienoic acid benzylamide] has an IC50 [1] greater than 10000 nM and an IC50 [2] greater than 1000 nM.

Work on `O=C(/C=C/C=C/c1ccc(O)c(O)c1)NCc1ccccc1` [CRD-82, 5-(3,4-Dihydroxyphenyl)-penta-2E,4E-dienoic acid benzylamide] yielded an IC50 [1] greater than 25000 nM and an IC50 [2] of 460 nM.

`COc1cc(/C=C/C=C/C(=O)NCc2ccc(O)c(O)c2)cc(OC)c1O` [CRD-84, 5-(4-Hydroxy-3,5-dimethoxyphenyl)-penta-2E,4E-dienoic acid 3,4-dihydroxybenzylamide] showed an IC50 [1] greater than 10000 nM and an IC50 [2] greater than 1000 nM.

With `COc1cc(/C=C/C=C/C(=O)NCc2ccc(O)c(O)c2)ccc1O` [CRD-85, 5-(4-Hydroxy-3-methoxyphenyl)-penta-2E,4E-dienoic acid 3,4-dihydroxybenzylamide] the IC50 [1] was greater than 10000 nM and the IC50 [2] was greater than 1000 nM.
